Key:
LP-1 = assay: Cytotoxicity of Auristatin-Peptide-h1F6 conjugates, resazurin assay; type: cell-based, human
Description: (§1) The conjugates contain approximately 4 drugs per antibody.

786-O = assay: as above; type: cell-based, human
Description: as §1

U251 = assay: as above; type: cell-based; settings: Table 4, ~4 drugs/Ab
Description: as §1

UMRC-3 = assay: as above; type: cell-based
Description: as §1

L428 [1] = assay: as above; type: cell-based
Description: as §1

Caki-1 = assay: as above; type: cell-based
Description: as §1

[2] = Tolerability (MTD) of conjugates in mice; type: in vivo, mouse; settings: h1F6 conjugates, single dose 100 mg/kg
Experimental: The tolerability, measured as maximum tolerated dose (MTD), was determined in mice based on animals' weight loss after treatment. Animals were usually monitored for 14 days. A conjugate is considered to be tolerated at a determined dose if single iv treatment at such dose results in a transient weight loss of no more than 20% of initial body weight of animals and no other signs of toxicity are observed. […] AF-Met-(D)Lys and AF-Asn-(D)Lys conjugates were tolerated at doses as high as 100 mg/kg (FIG. 7). Corresponding conjugates of auristatins containing Methionine (AM) and Tryptophan (AW) at the C-terminal position of the drug were tolerated even better, up to 150 mg/kg (FIG. 8). […] Thus, the Auristatin-Dipeptide Drug Linkers provide ADCs with significant therapeutic window for therapeutic treatment (e.g., cancer).

Karpas 299 = assay: Cytotoxicity of Auristatin-Peptide-cAC10 conjugates on CD30+ cells; type: cell-based, human
Experimental: (§2) Following the procedure described in Example 57, Auristatin-Dipeptide-cAC10 antibody conjugates were evaluated on CD30+ positive cell lines, Karpas 299, L428 and L540cy. In addition, a control conjugate, cAC10-vc-PABC-MMAF, was used. […] The conjugates contain approximately 4 drugs per antibody.
(§3) Following the procedure described as Examples 57 and 58, the activities of Auristatin-Peptide-cAC10 conjugates were evaluated on CD30^+ cells, such as Karpas 299, L428, and L540cy. The activities of Auristatin-Peptide-hBU12 conjugates were evaluated on CD19^+ cells such as Ramos, SUDHL-4, and ARH-77. The activities of Auristatin-Peptide-anti-LIV-1 conjugates were evaluated on LIV-1 positive cell lines MCF-7 and SKOV-3. The activities of Auristatin-Peptide-BR96 conjugates were evaluated on Le^y positive cells H3396, RCA, and L2987. All conjugates contain approximately 4 drugs per antibody.

L540cy = assay: as above; type: cell-based, human
Experimental: as §2, §3

L428 [3] = assay: as above; type: cell-based
Experimental: as §2, §3

HCT-116 (CD70−) = assay: Cytotoxicity of Auristatin-Peptide-h1F6 conjugates, CD70- control cell line; type: cell-based
Description: as §1

[4] = test system: CD30+, CD19+, LIV-1 positive and Le^y positive cells; assay: In vitro activity of conjugates with cAC10, hBU12, anti-LIV-1 and BR96, overall statements; type: cell-based; settings: conjugates with cAC10, hBU12, Anti-LIV-1, BR96; Table 11
Experimental: as §3

Caki-2 = assay: Cytotoxicity of Auristatin-Peptide-h1F6 conjugates, resazurin assay; type: cell-based
Experimental: as §1
Following the procedure described as Examples 57 and 58, Auristatin-Peptide-h1F6 conjugates were evaluated on CD70^+ cell, such as 786-O, Caki-1, Caki-2, and L428. Conjugates contain approximately 4 drugs per antibody.

Ramos = assay: Cytotoxicity of Auristatin-Peptide-hBU12 conjugates on CD19+ cells; type: cell-based; settings: Table 11, ~4 drugs per antibody
Experimental: as §3

SUDHL-4 = assay: as above; type: cell-based; settings: Table 11, ~4 drugs per antibody
Experimental: as §3

ARH-77 = assay: as above; type: cell-based; settings: Table 11, ~4 drugs per antibody
Experimental: as §3

MCF-7 = assay: Cytotoxicity of Auristatin-Peptide-anti-LIV-1 conjugates on LIV-1 positive cells; type: cell-based; settings: Table 11, ~4 drugs per antibody
Experimental: as §3

SKOV-3 = assay: as above; type: cell-based; settings: Table 11, ~4 drugs per antibody
Experimental: as §3

RCA = assay: Cytotoxicity of Auristatin-Peptide-BR96 conjugates on Le^y positive cells; type: cell-based; settings: Table 11, ~4 drugs per antibody
Experimental: as §3

H3396 = assay: as above; type: cell-based; settings: Table 11, ~4 drugs per antibody
Experimental: as §3

L2987 = assay: as above; type: cell-based; settings: Table 11, ~4 drugs per antibody
Experimental: as §3

[5] = Table 4, h1F6 conjugates, ~4 drugs/Ab
[6] = Table 7, h1F6 conjugates, AF vs MMAF
[7] = Table 8, h1F6 conjugates, D vs L amino acid in second linker position
[8] = Table 9, h1F6-Drug(4) conjugates, mono- vs dipeptide linker
[9] = Table 5, h1F6 conjugates, ~4 drugs/Ab
[10] = Table 10, h1F6-Drug(4) conjugates, aryl or alkyl maleimides
[11] = Table 11, ~4 drugs per antibody

AF-Asparagine-(D)Lysine-diaminoethane-propionyl maleimide [AF-Asn-(D)Lys]
IC50 LP-1 (LP-1; [5]): 417 ng/mL
IC50 LP-1 (LP-1; [6]): 479 ng/mL
IC50 LP-1 (LP-1; [7]): 479 ng/mL
IC50 LP-1 (LP-1; [8]): 479 ng/mL
IC50 786-0 (786-O; [5]): 19 ng/mL
IC50 786-O (786-O; [6]): 10 ng/mL
IC50 786-O (786-O; [7]): 10 ng/mL
IC50 786-O (786-O; [8]): 10 ng/mL
IC50 U251 (U251): 60 ng/mL
IC50 UMRC-3 (UMRC-3; [5]): 28 ng/mL
IC50 UMRC-3 (UMRC-3; [6]): 32 ng/mL
IC50 UMRC-3 (UMRC-3; [7]): 32 ng/mL
IC50 UMRC-3 (UMRC-3; [8]): 32 ng/mL
IC50 L428 (L428 [1]; [5]): 24 ng/mL
IC50 L-428 (L428 [1]; [6]): 9 ng/mL
IC50 L-428 (L428 [1]; [7]): 9 ng/mL
IC50 L-428 (L428 [1]; [8]): 9 ng/mL
IC50 Caki-1 (Caki-1; [5]): 10 ng/mL
IC50 Caki-1 (Caki-1; [6]): 6 ng/mL
IC50 Caki-1 (Caki-1; [7]): 6 ng/mL
IC50 Caki-1 (Caki-1; [8]): 6 ng/mL
tolerability at 100 mg/kg dose (in words) [2]: tolerated
IC50 Karpas 299 (Karpas 299; Table 6, ~4 drugs/Ab): 44 ng/mL
IC50 L540cy (L540cy; Table 6, ~4 drugs/Ab): 4 ng/mL
IC50 L428 (L428 [3]; Table 6, ~4 drugs/Ab): 0.1 ng/mL
IC50 HCT-116 (CD70−) (HCT-116 (CD70−); Table 4, ~4 drugs/Ab): >1000 ng/mL

MMAF-Asparagine-(D)Lysine-diaminoethane-propionyl maleimide [MMAF-Asn-(D)Lys]
IC50 LP-1 (LP-1; [6]): 110 ng/mL
IC50 786-O (786-O; [6]): 9 ng/mL
IC50 UMRC-3 (UMRC-3; [6]): 19 ng/mL
IC50 L-428 (L428 [1]; [6]): 7 ng/mL
IC50 Caki-1 (Caki-1; [6]): 7 ng/mL
tolerability at 100 mg/kg dose (in words) [2]: animal loss

AW-Methionine-(D)Lysine-diaminoethane-propionyl maleimide [AW-Met-(D)Lys]
in vitro potency (in words) [4]: less active
IC50 786-O (786-O; [9]): 20 ng/mL
IC50 786-O (786-O; [10]): 17 ng/mL
IC50 Caki-2 (Caki-2; [9]): 37 ng/mL
IC50 Caki-2 (Caki-2; [10]): 18 ng/mL
IC50 L428 (L428 [1]; [9]): >1000 ng/mL
IC50 L428 (L428 [1]; [10]): >1000 ng/mL
IC50 Caki-1 (Caki-1; [9]): 22 ng/mL
IC50 Caki-1 (Caki-1; [10]): 19 ng/mL
IC50 Ramos (Ramos): >10,000 ng/mL
IC50 SUDHL-4 (SUDHL-4): >10,000 ng/mL
IC50 ARH-77 (ARH-77): >10,000 ng/mL
IC50 MCF-7 (MCF-7): >10,000 ng/mL
IC50 SKOV-3 (SKOV-3): >10,000 ng/mL
IC50 Karpas 299 (Karpas 299; [11]): 11 ng/mL
IC50 L540cy (L540cy; [11]): 17 ng/mL
IC50 RCA (RCA): 5217 ng/mL
IC50 H3396 (H3396): 146 ng/mL
IC50 L2987 (L2987): 422 ng/mL
IC50 L428 (L428 [3]; [11]): ~10,000 ng/mL
IC50 HCT-116 (CD70−) (HCT-116 (CD70−); Table 5, ~4 drugs/Ab): >1000 ng/mL

Reference: US9463252B2, “Auristatin drug linker conjugates” (priority 2008, dated 2016)
